We go through 9 molecules from PubChem BioAssay AID1259407 (Chemical Carcinogenesis Research Information System (CCRIS), 2018).

In this series the test system is CCRIS mutagenicity, Ames/micronucleus/aberration tests. Nature of the series: CCRIS mutagenicity studies.
Where [1] appears, read: Test System: AMES SALMONELLA TYPHIMURIUM, Strain/Indicator: TA98, Metabolic Activation: NONE, Method: PREINCUBATION
Setting [2] is: Test System: AMES SALMONELLA TYPHIMURIUM, Strain/Indicator: TA100, Metabolic Activation: NONE, Method: PREINCUBATION
Where [3] appears, read: Test System: AMES SALMONELLA TYPHIMURIUM, Strain/Indicator: TA98, Metabolic Activation: NONE, Method: STANDARD PLATE.
The mark [4] stands for this setting: Test System: AMES SALMONELLA TYPHIMURIUM, Strain/Indicator: TA98, Metabolic Activation: RAT, LIVER, S-9, AROCLOR 1254, Method: STANDARD PLATE.
Setting [5] is: Test System: AMES SALMONELLA TYPHIMURIUM, Strain/Indicator: TA100, Metabolic Activation: NONE, Method: STANDARD PLATE.
Where [6] appears, read: Test System: AMES SALMONELLA TYPHIMURIUM, Strain/Indicator: TA100, Metabolic Activation: RAT, LIVER, S-9, AROCLOR 1254, Method: STANDARD PLATE.

Active and inactive are the calls of the source. No rule for the calls is given here.

In the case of `CCCCC(CC)CN` (stereo not drawn), the mutagenic call by setting is: (Test System: AMES SALMONELLA TYPHIMURIUM, Strain/Indicator: TA97, Metabolic Activation: HAMSTER, LIVER, S-9, AROCLOR 1254 (10%), Method: PREINCUBATION) “inactive; negative”; (Test System: AMES SALMONELLA TYPHIMURIUM, Strain/Indicator: TA97, Metabolic Activation: HAMSTER, LIVER, S-9, AROCLOR 1254 (30%), Method: PREINCUBATION) “inactive; negative”; (Test System: AMES SALMONELLA TYPHIMURIUM, Strain/Indicator: TA97, Metabolic Activation: NONE, Method: PREINCUBATION) “inactive; negative”; (Test System: AMES SALMONELLA TYPHIMURIUM, Strain/Indicator: TA97, Metabolic Activation: RAT, LIVER, S-9, AROCLOR 1254 (10%), Method: PREINCUBATION) “inactive; negative”; (Test System: AMES SALMONELLA TYPHIMURIUM, Strain/Indicator: TA97, Metabolic Activation: RAT, LIVER, S-9, AROCLOR 1254 (30%), Method: PREINCUBATION) “inactive; negative”; (Test System: AMES SALMONELLA TYPHIMURIUM, Strain/Indicator: TA98, Metabolic Activation: HAMSTER, LIVER, S-9, AROCLOR 1254 (10%), Method: PREINCUBATION) “inactive; negative”. In addition, the mutagenic call is “inactive; negative” (Test System: AMES SALMONELLA TYPHIMURIUM, Strain/Indicator: TA98, Metabolic Activation: HAMSTER, LIVER, S-9, AROCLOR 1254 (30%), Method: PREINCUBATION); “inactive; negative” under setting [1]; “inactive; negative” (Test System: AMES SALMONELLA TYPHIMURIUM, Strain/Indicator: TA98, Metabolic Activation: RAT, LIVER, S-9, AROCLOR 1254 (10%), Method: PREINCUBATION); “inactive; negative” (Test System: AMES SALMONELLA TYPHIMURIUM, Strain/Indicator: TA98, Metabolic Activation: RAT, LIVER, S-9, AROCLOR 1254 (30%), Method: PREINCUBATION); “inactive; negative” (Test System: AMES SALMONELLA TYPHIMURIUM, Strain/Indicator: TA100, Metabolic Activation: HAMSTER, LIVER, S-9, AROCLOR 1254 (10%), Method: PREINCUBATION); “inactive; negative” (Test System: AMES SALMONELLA TYPHIMURIUM, Strain/Indicator: TA100, Metabolic Activation: HAMSTER, LIVER, S-9, AROCLOR 1254 (30%), Method: PREINCUBATION). Further, the mutagenic call by setting is: under setting [2], “inactive; negative”; (Test System: AMES SALMONELLA TYPHIMURIUM, Strain/Indicator: TA100, Metabolic Activation: RAT, LIVER, S-9, AROCLOR 1254 (10%), Method: PREINCUBATION) “inactive; negative”; (Test System: AMES SALMONELLA TYPHIMURIUM, Strain/Indicator: TA100, Metabolic Activation: RAT, LIVER, S-9, AROCLOR 1254 (30%), Method: PREINCUBATION) “inactive; negative”; (Test System: AMES SALMONELLA TYPHIMURIUM, Strain/Indicator: TA1535, Metabolic Activation: HAMSTER, LIVER, S-9, AROCLOR 1254 (10%), Method: PREINCUBATION) “inactive; negative”; (Test System: AMES SALMONELLA TYPHIMURIUM, Strain/Indicator: TA1535, Metabolic Activation: HAMSTER, LIVER, S-9, AROCLOR 1254 (30%), Method: PREINCUBATION) “inactive; negative”; (Test System: AMES SALMONELLA TYPHIMURIUM, Strain/Indicator: TA1535, Metabolic Activation: NONE, Method: PREINCUBATION) “inactive; negative”. In addition, the mutagenic call (Test System: AMES SALMONELLA TYPHIMURIUM, Strain/Indicator: TA1535, Metabolic Activation: RAT, LIVER, S-9, AROCLOR 1254 (10%), Method: PREINCUBATION) is “inactive; negative” and the mutagenic call (Test System: AMES SALMONELLA TYPHIMURIUM, Strain/Indicator: TA1535, Metabolic Activation: RAT, LIVER, S-9, AROCLOR 1254 (30%), Method: PREINCUBATION) was “inactive; negative”.
For `COP(=O)(OC)SC`, the mutagenic call is “inactive; negative” (Test System: AMES SALMONELLA TYPHIMURIUM, Strain/Indicator: TA97, Metabolic Activation: NONE, Method: STANDARD PLATE); “inactive; negative” (Test System: AMES SALMONELLA TYPHIMURIUM, Strain/Indicator: TA97, Metabolic Activation: RAT, LIVER, S-9, AROCLOR 1254, Method: PREINCUBATION); “inactive; negative” (Test System: AMES SALMONELLA TYPHIMURIUM, Strain/Indicator: TA97, Metabolic Activation: RAT, LIVER, S-9, AROCLOR 1254, Method: STANDARD PLATE); “inactive; negative” under setting [3]; “inactive; negative” (Test System: AMES SALMONELLA TYPHIMURIUM, Strain/Indicator: TA98, Metabolic Activation: RAT, LIVER, S-9, AROCLOR 1254, Method: PREINCUBATION); “inactive; negative” under setting [4]. Further, the mutagenic call by setting is: under setting [5], “inactive; negative”; (Test System: AMES SALMONELLA TYPHIMURIUM, Strain/Indicator: TA100, Metabolic Activation: RAT, LIVER, S-9, AROCLOR 1254, Method: PREINCUBATION) “inactive; negative”; under setting [6], “inactive; negative”.
For the molecule `Cc1ccc(C)c2c1ccc1ccccc12`, the mutagenic call under setting [3] was “inactive; negative”, the mutagenic call under setting [4] is “active; positive”, the mutagenic call under setting [5] was “inactive; negative” and the mutagenic call under setting [6] is “active; positive”.
For the molecule `O=S(=O)(O)c1ccc2cc(O)c(S(=O)(=O)O)cc2c1`, the mutagenic call is, setting by setting: under setting [1], “inactive; negative”; (Test System: AMES SALMONELLA TYPHIMURIUM, Strain/Indicator: TA98, Metabolic Activation: RAT, LIVER, S-9, PHENOBARBITAL, Method: PREINCUBATION) “inactive; negative”; under setting [2], “inactive; negative”; (Test System: AMES SALMONELLA TYPHIMURIUM, Strain/Indicator: TA100, Metabolic Activation: RAT, LIVER, S-9, PHENOBARBITAL, Method: PREINCUBATION) “inactive; negative”.
For `Nc1cc(Cl)cc(Cl)c1`, the mutagenic call runs as follows: (End Point: In vitro chromosomal aberrations, Test System: Chinese hamster lung (CHL/IU) cells, Metabolic Activation: Rat, Liver, S9, Phenobarbital and 5,6-benzoflavone) “active; positive (structural changes and ploidy)”; under setting [3], “inactive; negative”; under setting [4], “inactive; negative”; under setting [5], “inactive; negative”; under setting [6], “inactive; negative”; (Test System: UDS RODENT HEPATOCYTES, Strain/Indicator: THY INCORP (NON-S-PHASE), Metabolic Activation: NONE, Method: AUTORADIOGRAPHY) “inactive; negative”.
Turning to `COc1ccc(CNC(=O)C(C)Br)cc1` (stereo not drawn), the mutagenic call under setting [5] is “active; positive”.
As for `BrCc1ccc(Br)cc1`, the mutagenic call is “inactive; negative” (Test System: AMES SALMONELLA TYPHIMURIUM, Strain/Indicator: TA97A, Metabolic Activation: NONE, Method: STANDARD PLATE); “inactive; negative” (Test System: AMES SALMONELLA TYPHIMURIUM, Strain/Indicator: TA97A, Metabolic Activation: RAT LIVER S-9, PHENOBARBITAL, BETA-NAPHTHOFLAVONE, 3.5%, Method: STANDARD PLATE); “inactive; negative” under setting [3]; “inactive; negative” (Test System: AMES SALMONELLA TYPHIMURIUM, Strain/Indicator: TA98, Metabolic Activation: RAT LIVER S-9, PHENOBARBITAL, BETA-NAPHTHOFLAVONE, 3.5%, Method: STANDARD PLATE); “inactive; negative” under setting [5]; “inactive; negative” (Test System: AMES SALMONELLA TYPHIMURIUM, Strain/Indicator: TA100, Metabolic Activation: RAT LIVER S-9, PHENOBARBITAL, BETA-NAPHTHOFLAVONE, 3.5%, Method: STANDARD PLATE). The mutagenic call by setting is: (Test System: AMES SALMONELLA TYPHIMURIUM, Strain/Indicator: TA1535, Metabolic Activation: NONE, Method: STANDARD PLATE) “inactive; negative”; (Test System: AMES SALMONELLA TYPHIMURIUM, Strain/Indicator: TA1535, Metabolic Activation: RAT LIVER S-9, PHENOBARBITAL, BETA-NAPHTHOFLAVONE, 3.5%, Method: STANDARD PLATE) “inactive; negative”; (Test System: ESCHERICHIA COLI, Strain/Indicator: WP2 UVR A, Metabolic Activation: NONE, Method: STANDARD PLATE) “inactive; negative”; (Test System: ESCHERICHIA COLI, Strain/Indicator: WP2 UVR A, Metabolic Activation: RAT LIVER S-9, PHENOBARBITAL, BETA-NAPHTHOFLAVONE, 3.5%, Method: STANDARD PLATE) “inactive; negative”.
As to `O=[N+]([O-])c1cccc2cn[nH]c12`, under setting [3], the mutagenic call is “active; positive”.
With `O=C(O)/C=C(\CCl)C(Cl)Cl`, the mutagenic call is “inactive; negative” under setting [1]; “active; positive” under setting [2]; “inactive; negative” (Test System: AMES SALMONELLA TYPHIMURIUM, Strain/Indicator: TA104, Metabolic Activation: NONE, Method: PREINCUBATION).
